Assay results as given in ChEMBL document CHEMBL1155953, “Synthesis and biological evaluation of C-12' substituted vinflunine derivatives” (Bioorg Med Chem Lett, 2008).

test system: A549; assay: Cytotoxicity against human A549 cells by SRB assay; type: functional, cell-based

Compound | IC50 [nM]
CC[C@]12C=CCN3CC[C@@]4(c5cc([C@@]6(C(=O)OC)C[C@H]7C[C@@H](C(C)(F)F)CN(Cc8c6[nH]c6ccc(-c9ccoc9)cc86)C7)c(OC)cc5N(C)[C@H]4[C@@](O)(C(=O)OC)[C@@H]1OC(C)=O)[C@@H]32 | 2280
CC[C@]12C=CCN3CC[C@@]4(c5cc([C@@]6(C(=O)OC)C[C@H]7C[C@@H](C(C)(F)F)CN(CCc8c6[nH]c6ccc(C#N)cc86)C7)c(OC)cc5N(C)[C@H]4[C@@](O)(C(=O)OC)[C@@H]1OC(C)=O)[C@@H]32 | 290
CC[C@]12C=CCN3CC[C@@]4(c5cc([C@@]6(C(=O)OC)C[C@H]7C[C@@H](C(C)(F)F)CN(Cc8c6[nH]c6ccc(NC(=O)N(C)C)cc86)C7)c(OC)cc5N(C)[C@H]4[C@@](O)(C(=O)OC)[C@@H]1OC(C)=O)[C@@H]32 | > 100000
CC[C@]12C=CCN3CC[C@@]4(c5cc([C@@]6(C(=O)OC)C[C@H]7C[C@@H](C(C)(F)F)CN(CCc8c6[nH]c6ccc(C(C)=O)cc86)C7)c(OC)cc5N(C)[C@H]4[C@@](O)(C(=O)OC)[C@@H]1OC(C)=O)[C@@H]32 | 4720
CCC(=O)c1ccc2[nH]c3c(c2c1)CN1C[C@H](C[C@@H](C(C)(F)F)C1)C[C@]3(C(=O)OC)c1cc2c(cc1OC)N(C)[C@H]1[C@@](O)(C(=O)OC)[C@H](OC(C)=O)[C@]3(CC)C=CCN4CC[C@]21[C@@H]43 | 17400
CC[C@]12C=CCN3CC[C@@]4(c5cc([C@@]6(C(=O)OC)C[C@H]7C[C@@H](C(C)(F)F)CN(Cc8c6[nH]c6ccc(C9CC9)cc86)C7)c(OC)cc5N(C)[C@H]4[C@@](O)(C(=O)OC)[C@@H]1OC(C)=O)[C@@H]32 | 120
CCOC(=O)c1ccc2[nH]c3c(c2c1)CN1C[C@H](C[C@@H](C(C)(F)F)C1)C[C@]3(C(=O)OC)c1cc2c(cc1OC)N(C)[C@H]1[C@@](O)(C(=O)OC)[C@H](OC(C)=O)[C@]3(CC)C=CCN4CC[C@]21[C@@H]43 | 1030
CCCCc1ccc2[nH]c3c(c2c1)CN1C[C@H](C[C@@H](C(C)(F)F)C1)C[C@]3(C(=O)OC)c1cc2c(cc1OC)N(C)[C@H]1[C@@](O)(C(=O)OC)[C@H](OC(C)=O)[C@]3(CC)C=CCN4CC[C@]21[C@@H]43 | 1880
CCNC(=S)Nc1ccc2[nH]c3c(c2c1)CN1C[C@H](C[C@@H](C(C)(F)F)C1)C[C@]3(C(=O)OC)c1cc2c(cc1OC)N(C)[C@H]1[C@@](O)(C(=O)OC)[C@H](OC(C)=O)[C@]3(CC)C=CCN4CC[C@]21[C@@H]43 | 5680
CC[C@]12C=CCN3CC[C@@]4(c5cc([C@@]6(C(=O)OC)C[C@H]7C[C@@H](C(C)(F)F)CN(Cc8c6[nH]c6ccc(NC(=O)N9CCOCC9)cc86)C7)c(OC)cc5N(C)[C@H]4[C@@](O)(C(=O)OC)[C@@H]1OC(C)=O)[C@@H]32 | > 100000
CC[C@]12C=CCN3CC[C@@]4(c5cc([C@@]6(C(=O)OC)C[C@H]7C[C@@H](C(C)(F)F)CN(Cc8c6[nH]c6ccc(-c9ccc(F)cc9)cc86)C7)c(OC)cc5N(C)[C@H]4[C@@](O)(C(=O)OC)[C@@H]1OC(C)=O)[C@@H]32 | 2560
CC[C@]12C=CCN3CC[C@@]4(c5cc([C@@]6(C(=O)OC)C[C@H]7C[C@@H](C(C)(F)F)CN(Cc8c6[nH]c6ccc(-c9ccc(Cl)cc9)cc86)C7)c(OC)cc5N(C)[C@H]4[C@@](O)(C(=O)OC)[C@@H]1OC(C)=O)[C@@H]32 | 1170
CCc1ccc2[nH]c3c(c2c1)CCN1C[C@H](C[C@@H](C(C)(F)F)C1)C[C@]3(C(=O)OC)c1cc2c(cc1OC)N(C)[C@H]1[C@@](O)(C(=O)OC)[C@H](OC(C)=O)[C@]3(CC)C=CCN4CC[C@]21[C@@H]43 | 920
CC[C@]12C=CCN3CC[C@@]4(c5cc([C@@]6(C(=O)OC)C[C@H]7C[C@@H](C(C)(F)F)CN(Cc8c6[nH]c6ccc(Nc9ccccc9)cc86)C7)c(OC)cc5N(C)[C@H]4[C@@](O)(C(=O)OC)[C@@H]1OC(C)=O)[C@@H]32 | 1860
CC[C@]12C=CCN3CC[C@@]4(c5cc([C@@]6(C(=O)OC)C[C@H]7C[C@@H](C(C)(F)F)CN(CCc8c6[nH]c6ccc(NC(C)=O)cc86)C7)c(OC)cc5N(C)[C@H]4[C@@](O)(C(=O)OC)[C@@H]1OC(C)=O)[C@@H]32 | 41000
CC[C@]12C=CCN3CC[C@@]4(c5cc([C@@]6(C(=O)OC)C[C@H]7C[C@@H](C(C)(F)F)CN(Cc8c6[nH]c6ccc(C(=O)C9CC9)cc86)C7)c(OC)cc5N(C)[C@H]4[C@@](O)(C(=O)OC)[C@@H]1OC(C)=O)[C@@H]32 | 4450
CC[C@]12C=CCN3CC[C@@]4(c5cc([C@@]6(C(=O)OC)C[C@H]7C[C@@H](C(C)(F)F)CN(Cc8c6[nH]c6ccc(C(=O)OC(C)C)cc86)C7)c(OC)cc5N(C)[C@H]4[C@@](O)(C(=O)OC)[C@@H]1OC(C)=O)[C@@H]32 | 3260
CC[C@]12C=CCN3CC[C@@]4(c5cc([C@@]6(C(=O)OC)C[C@H]7C[C@@H](C(C)(F)F)CN(Cc8c6[nH]c6ccc(-c9ccc(C#N)cc9)cc86)C7)c(OC)cc5N(C)[C@H]4[C@@](O)(C(=O)OC)[C@@H]1OC(C)=O)[C@@H]32 | 2500
CC[C@]12C=CCN3CC[C@@]4(c5cc([C@@]6(C(=O)OC)C[C@H]7C[C@@H](C(C)(F)F)CN(CCc8c6[nH]c6ccc(NS(C)(=O)=O)cc86)C7)c(OC)cc5N(C)[C@H]4[C@@](O)(C(=O)OC)[C@@H]1OC(C)=O)[C@@H]32 | 320

Compound | IC50 [nM]
CC[C@]12C=CCN3CC[C@@]4(c5cc([C@@]6(C(=O)OC)C[C@H]7C[C@@H](C(C)(F)F)CN(Cc8c6[nH]c6ccc(NC(=S)NC9CC9)cc86)C7)c(OC)cc5N(C)[C@H]4[C@@](O)(C(=O)OC)[C@@H]1OC(C)=O)[C@@H]32 | 27500
C#Cc1ccc2[nH]c3c(c2c1)CCN1C[C@H](C[C@@H](C(C)(F)F)C1)C[C@]3(C(=O)OC)c1cc2c(cc1OC)N(C)[C@H]1[C@@](O)(C(=O)OC)[C@H](OC(C)=O)[C@]3(CC)C=CCN4CC[C@]21[C@@H]43 | 50
CC[C@]12C=CCN3CC[C@@]4(c5cc([C@@]6(C(=O)OC)C[C@H]7C[C@@H](C(C)(F)F)CN(CCc8c6[nH]c6ccc(N9CCCC9)cc86)C7)c(OC)cc5N(C)[C@H]4[C@@](O)(C(=O)OC)[C@@H]1OC(C)=O)[C@@H]32 | 640
CC[C@]12C=CCN3CC[C@@]4(c5cc([C@@]6(C(=O)OC)C[C@H]7C[C@@H](C(C)(F)F)CN(Cc8c6[nH]c6ccc(-c9ccccc9Cl)cc86)C7)c(OC)cc5N(C)[C@H]4[C@@](O)(C(=O)OC)[C@@H]1OC(C)=O)[C@@H]32 | 1010
CC[C@]12C=CCN3CC[C@@]4(c5cc([C@@]6(C(=O)OC)C[C@H]7C[C@@H](C(C)(F)F)CN(Cc8c6[nH]c6ccc(-c9ccccc9C(F)(F)F)cc86)C7)c(OC)cc5N(C)[C@H]4[C@@](O)(C(=O)OC)[C@@H]1OC(C)=O)[C@@H]32 | 290
CC[C@]12C=CCN3CC[C@@]4(c5cc([C@@]6(C(=O)OC)C[C@H]7C[C@@H](C(C)(F)F)CN(CCc8c6[nH]c6ccc(C(=O)OC)cc86)C7)c(OC)cc5N(C)[C@H]4[C@@](O)(C(=O)OC)[C@@H]1OC(C)=O)[C@@H]32 | 8730
CC[C@]12C=CCN3CC[C@@]4(c5cc([C@@]6(C(=O)OC)C[C@H]7C[C@@H](C(C)(F)F)CN(CCc8c6[nH]c6ccc(C)cc86)C7)c(OC)cc5N(C)[C@H]4[C@@](O)(C(=O)OC)[C@@H]1OC(C)=O)[C@@H]32 | 37
CC[C@]12C=CCN3CC[C@@]4(c5cc([C@@]6(C(=O)OC)C[C@H]7C[C@@H](C(C)(F)F)CN(Cc8c6[nH]c6ccc(NC(=O)C(F)(F)F)cc86)C7)c(OC)cc5N(C)[C@H]4[C@@](O)(C(=O)OC)[C@@H]1OC(C)=O)[C@@H]32 | 1810
CC[C@]12C=CCN3CC[C@@]4(c5cc([C@@]6(C(=O)OC)C[C@H]7C[C@@H](C(C)(F)F)CN(Cc8c6[nH]c6ccc(-c9ccc(F)cc9F)cc86)C7)c(OC)cc5N(C)[C@H]4[C@@](O)(C(=O)OC)[C@@H]1OC(C)=O)[C@@H]32 | 1020
CC[C@]12C=CCN3CC[C@@]4(c5cc([C@@]6(C(=O)OC)C[C@H]7C[C@@H](C(C)(F)F)CN(Cc8c6[nH]c6ccc(NC(=O)C(Cl)Cl)cc86)C7)c(OC)cc5N(C)[C@H]4[C@@](O)(C(=O)OC)[C@@H]1OC(C)=O)[C@@H]32 | 200
CC[C@]12C=CCN3CC[C@@]4(c5cc([C@@]6(C(=O)OC)C[C@H]7C[C@@H](C(C)(F)F)CN(Cc8c6[nH]c6ccc(C(=O)OCc9ccccc9)cc86)C7)c(OC)cc5N(C)[C@H]4[C@@](O)(C(=O)OC)[C@@H]1OC(C)=O)[C@@H]32 | 280
CC[C@]12C=CCN3CC[C@@]4(c5cc([C@@]6(C(=O)OC)C[C@H]7C[C@@H](C(C)(F)F)CN(CCc8c6[nH]c6ccc(-c9ccc(C)cc9)cc86)C7)c(OC)cc5N(C)[C@H]4[C@@](O)(C(=O)OC)[C@@H]1OC(C)=O)[C@@H]32 | 560
CC[C@]12C=CCN3CC[C@@]4(c5cc([C@@]6(C(=O)OC)C[C@H]7C[C@@H](C(C)(F)F)CN(Cc8c6[nH]c6ccc(NC(=O)OC)cc86)C7)c(OC)cc5N(C)[C@H]4[C@@](O)(C(=O)OC)[C@@H]1OC(C)=O)[C@@H]32 | 420
CC[C@]12C=CCN3CC[C@@]4(c5cc([C@@]6(C(=O)OC)C[C@H]7C[C@@H](C(C)(F)F)CN(CCc8c6[nH]c6ccc(-c9ccccc9)cc86)C7)c(OC)cc5N(C)[C@H]4[C@@](O)(C(=O)OC)[C@@H]1OC(C)=O)[C@@H]32 | 2160
C=CCNc1ccc2[nH]c3c(c2c1)CN1C[C@H](C[C@@H](C(C)(F)F)C1)C[C@]3(C(=O)OC)c1cc2c(cc1OC)N(C)[C@H]1[C@@](O)(C(=O)OC)[C@H](OC(C)=O)[C@]3(CC)C=CCN4CC[C@]21[C@@H]43 | 510
CC[C@]12C=CCN3CC[C@@]4(c5cc([C@@]6(C(=O)OC)C[C@H]7C[C@@H](C(C)(F)F)CN(Cc8c6[nH]c6ccc(-c9ccsc9)cc86)C7)c(OC)cc5N(C)[C@H]4[C@@](O)(C(=O)OC)[C@@H]1OC(C)=O)[C@@H]32 | 3000
CC[C@]12C=CCN3CC[C@@]4(c5cc([C@@]6(C(=O)OC)C[C@H]7C[C@@H](C(C)(F)F)CN(Cc8c6[nH]c6ccc(NC(N)=O)cc86)C7)c(OC)cc5N(C)[C@H]4[C@@](O)(C(=O)OC)[C@@H]1OC(C)=O)[C@@H]32 | > 100000
CC[C@]12C=CCN3CC[C@@]4(c5cc([C@@]6(C(=O)OC)C[C@H]7C[C@@H](C(C)(F)F)CN(Cc8c6[nH]c6ccc(N=[N+]=[N-])cc86)C7)c(OC)cc5N(C)[C@H]4[C@@](O)(C(=O)OC)[C@@H]1OC(C)=O)[C@@H]32 | 160
CC[C@]12C=CCN3CC[C@@]4(c5cc([C@@]6(C(=O)OC)C[C@H]7C[C@@H](C(C)(F)F)CN(Cc8c6[nH]c6ccc(NC(=O)NC)cc86)C7)c(OC)cc5N(C)[C@H]4[C@@](O)(C(=O)OC)[C@@H]1OC(C)=O)[C@@H]32 | 35100
